Assay results as given in patent publication US20090263509A1, “ANTIBACTERIAL AGENT AND ANTIBACTERIAL COMPOSITION” (SAKAMOTO BIO CO., LTD, priority 2004, published 2009).
≈ marks a conversion by molar mass, not a printed value.

Columns and labels:
Assay type in all cases: cell-based
[1] = system: Aspergillus niger (IFO9455 ATCC16401); experiment: Antimicrobial activity, agar medium dilution method (MIC / growth observation); design: key to Antibacterial Effect with Specimen Concentration: A: antibacterially effective; B: bacteriostatically active; C: some growth inhibiting effective; D: non effective
Protocol: (§1) Antimicrobial activity was assayed using the method described below. Paraben was used as a positive control. Staphylococcus aureus (IFO13276 ATCC6538), Candida albicans (IFO1594 ATCC10231), Aspergillus niger (IFO9455 ATCC16401), Pseudomonas aeruginosa (IFO013275 ATCC9027), Escherichia coli (IFO3972 ATCC8739) Antibacterial effect was evaluated by using either qualitative observation of the growing strains in the presence of each specimen or measuring the minimum inhibitory concentration (MIC) of the strains. An agar medium dilution method was adopted for the evaluation using Mueller-Hinton agar media (Eiken Chemical Co., Ltd.). The experiment was performed using the MIC test method following the standards of the Japanese Society of Chemotherapy. More specifically, each specimen was measured, when dissolved in 50/50 ethanol/water mixture and used to prepare 1 mL of each test specimen. 9 mL of measuring medium was added to the test specimens to create an agar plate. […] of the experimental bacterial liquid (live bacteria: 10^6-10^8/mL) was added to the agar plate. The growth and development of the bacteria was judged and recorded after it was cultured for 24 hours at 37° C. The minimum concentration that inhibited bacterial growth was regarded as MIC. The evaluation results of Example 1 are shown in Table 1 (MIC Rate) and Table 2 (Antibacterial Effect with Specimen Concentration). The MIC rates in Table 1 are given in μg/ml. […] The meaning of the symbols used in Table 2 is as follows: A: antibacterially effective, B: bacteriostatically active, C: some growth inhibiting effective, D: non effective.

[2] = system: Candida albicans (IFO1594 ATCC10231); experiment: as above; design: key to Antibacterial Effect with Specimen Concentration: A: antibacterially effective; B: bacteriostatically active; C: some growth inhibiting effective; D: non effective
Protocol: as §1

[3] = system: Staphylococcus aureus (IFO13276 ATCC6538); experiment: as above; design: key to Antibacterial Effect with Specimen Concentration: A: antibacterially effective; B: bacteriostatically active; C: some growth inhibiting effective; D: non effective
Protocol: as §1

[4] = system: Escherichia coli (IFO3972 ATCC8739); experiment: Antimicrobial activity, agar medium dilution method (MIC); conditions: Mueller-Hinton agar, 24 hours at 37° C.
Protocol: (§2) Antimicrobial activity was assayed using the method described below. Paraben was used as a positive control. Staphylococcus aureus (IFO13276 ATCC6538), Candida albicans (IFO1594 ATCC10231), Aspergillus niger (IFO9455 ATCC16401), Pseudomonas aeruginosa (IFO013275 ATCC9027), Escherichia coli (IFO3972 ATCC8739) Antibacterial effect was evaluated by using either qualitative observation of the growing strains in the presence of each specimen or measuring the minimum inhibitory concentration (MIC) of the strains. An agar medium dilution method was adopted for the evaluation using Mueller-Hinton agar media (Eiken Chemical Co., Ltd.). The experiment was performed using the MIC test method following the standards of the Japanese Society of Chemotherapy. More specifically, each specimen was measured, when dissolved in 50/50 ethanol/water mixture and used to prepare 1 mL of each test specimen. 9 mL of measuring medium was added to the test specimens to create an agar plate. […] of the experimental bacterial liquid (live bacteria: 10^6-10^8/mL) was added to the agar plate. The growth and development of the bacteria was judged and recorded after it was cultured for 24 hours at 37° C. The minimum concentration that inhibited bacterial growth was regarded as MIC. The evaluation results of Example 1 are shown in Table 1 (MIC Rate) and Table 2 (Antibacterial Effect with Specimen Concentration). […]

[5] = system: Pseudomonas aeruginosa (IFO013275 ATCC9027); experiment: as above; conditions: Mueller-Hinton agar, 24 hours at 37° C.
Protocol: as §2

[6] = specimen concentration 50 μg/ml
[7] = specimen concentration 500 μg/ml
[8] = Mueller-Hinton agar, 24 hours at 37° C.

Row | SMILES | Antibacterial Effect with Specimen Concentration [1, 6] | Antibacterial Effect with Specimen Concentration [1, 7] | Antibacterial Effect with Specimen Concentration [2, 6] | Antibacterial Effect with Specimen Concentration [2, 7] | Antibacterial Effect with Specimen Concentration [3, 6] | Antibacterial Effect with Specimen Concentration [3, 7] | MIC [4] [µg/mL] | MIC [5] [µg/mL] | MIC [1, 8] [µg/mL] | MIC [2, 8] [µg/mL] | MIC [3, 8] [µg/mL]
1 | COc1ccc(C2COc3cc(O)ccc3C2)c(OC)c1O (single isomer, unassigned) [Mucronulatol, mucronulatol] | C | A | C | A | A | A |  |  |  |  | 
2 | COc1cc(O)c(OC)c(OC)c1C1COc2cc(O)ccc2C1 (centres unmarked) | C | A | C | C | D | C |  |  |  |  | 
3 | O=C(O)c1ccc(O)cc1 [Paraben, reference compound] |  |  |  |  |  |  | 800 (≈ 5.79 mM) | 1000 (≈ 7.24 mM) | 300 (≈ 2.17 mM) | 500 (≈ 3.62 mM) | 800 (≈ 5.79 mM)
4 | COC1=C(OC)C(=O)C(C2COc3c(ccc(O)c3OC)C2)=CC1=O (single isomer, unassigned) [Amorphaquinone, amorphaquinone] | C | A | B | A | A | A |  |  |  |  | 
5 | COC1=C(OC)C(=O)C(C2COc3cc(O)ccc3C2)=CC1=O (centres unmarked) [Pendulone, pendulone] | C | A | C | A | A | A |  |  |  |  | 
